Reference: US12678454B2, “Bicarbonate as a potentiator for antimicrobial agents” (priority 2017, dated 2026)
Read-outs that look alike come from different tables or passages of the source. Marks after values point to notes of the source that are not given here.

How the values were obtained:
[1] = system: Klebsiella pneumonia (ATCC 43816); settings: mice
Experimental: Mice were infected with Klebsiella pneumonia (ATCC 43816; inoculum=2.5×10^6 CFU/mL). Following infection, the infected mice were treated with 4 mL nebulized doses of 225 mM sodium bicarbonate using a chamber nebulizer delivery system (Kent Scientific) at 2, 12 and 24 hours post-infection. The mice were sacrificed after 36 hours, and bacterial counts enumerated.

E. coli (K-12 BW25113) = assay type: cell-based, Escherichia coli; parameters: MIC, E. coli, MHB− / MIC, E. coli, MHB+: unit not given here; settings: for MIC, E. coli, MHB−: MHB without sodium bicarbonate
Experimental: (§1) In the following experiments, bacterial cells were cultured in 96-well microtiter plates in cation-adjusted Mueller-Hinton Broth (MHB) for 18 h at 37° C. The main strains used in this study were E. coli (K-12 BW25113) (placed in stationary incubator) and S. aureus (Strain Newman) (incubated at 250 r.p.m). Knockout strains (ΔtolcC and ΔychM) were used from the Keio knockout collection (Baba, T. et al. Construction of Escherichia coli K-12 in-frame, single-gene knockout mutants: the Keio collection. Mol Syst Biol 2, 2006 0008, doi:10.1038/msb4100050 (2006)). For minimum concentration for inhibition (MIC) determination and checkerboard analyses, Clinical & Laboratory Standards Institute (CLSI) protocol was used. […] DiSC3 loading of S. aureus cells was performed as previously described (Farha, M. A., Verschoor, C. P., Bowdish, D. & Brown, E. D. Collapsing the proton motive force to identify synergistic combinations against Staphylococcus aureus. Chemistry & biology 20, 1168-1178, doi:10.1016/j.chembiol.2013.07.006 (2013)). CCCP concentration of 20 μM was used. pH adjustments were made by addition of HCl or NaOH. INT assay and ATP bioluminescence assays were performed as previously described (Farha, M. A., Verschoor, C. P., Bowdish, D. & Brown, E. D. Collapsing the proton motive force to identify synergistic combinations against Staphylococcus aureus. Chemistry & biology 20, 1168-1178, doi:10.1016/j.chembiol.2013.07.006 (2013)). For chemical-genomic studies, the Keio library was grown overnight in cation-adjusted MHB broth, in 384-well plates. From these, treatment plates (25 mM sodium bicarbonate, or a sterile water control) were inoculated and grown for 15 hours at 37° C., in a stationary incubator. Data was normalized according to Mangat et al (Mangat, C. S., Bharat, A., Gehrke, S. S. & Brown, E. D. Rank ordering plate data facilitates data visualization and normalization in high-throughput screening. J Biomol Screen 19, 1314-1320, doi:10.1177/1087057114534298 (2014)), with gene products and GO terms mined from EcoCyc. The GFP promoter library (Keseler, I. M. et al. EcoCyc: fusing model organism databases with systems biology. Nucleic Acids Res 41, D605-612, doi:10.1093/nar/gks1027 (2013)) was grown for 18 hours at ambient temperature with the same inoculation strategy as with the Keio collection. The analysis pipeline of Zaslaver et al (Zaslaver, A. et al. A comprehensive library of fluorescent transcriptional reporters for Escherichia coli. Nat Methods 3, 623-628, doi:10.1038/nmeth895 (2006)) was used to generate maps of promoter activity, from which lists of promoters with increased or decreased activity were compiled.

E. coli = test: Microdilution checkerboard analyses; assay type: cell-based, Escherichia coli
Experimental: as §1, with “The GFP promoter library (Keseler, I. M. et al. EcoCyc: fusing model organism databases with systems biology. Nucleic Acids Res 41, D605-612, doi:10.1093/nar/gks1027 (2013)) was grown for 18 hours at ambient temperature with the same inoculation strategy as with the Keio collection. The analysis pipeline of Zaslaver et al (Zaslaver, A. et al. A comprehensive library of fluorescent transcriptional reporters for Escherichia coli. Nat Methods 3, 623-628, doi:10.1038/nmeth895 (2006)) was used to generate maps of promoter activity, from which lists of promoters with increased or decreased activity were compiled.” left out

[2] = for pH of MHB media: prior to pH-adjusting to 7.4
Text: Test media were pH-adjusted upon addition of sodium bicarbonate for all studies reported herein.

Enterococcus faecium = system: Enterococcus faecium
Experimental: In the following experiments, bacterial cells were cultured in 96-well microtiter plates in cation-adjusted Mueller-Hinton Broth (MHB) for 18 h at 37° C. The main strains used in this study were E. coli (K-12 BW25113) (placed in stationary incubator) and S. aureus (Strain Newman) (incubated at 250 r.p.m). Knockout strains (ΔtolcC and ΔychM) were used from the Keio knockout collection (Baba, T. et al. Construction of Escherichia coli K-12 in-frame, single-gene knockout mutants: the Keio collection. Mol Syst Biol 2, 2006 0008, doi:10.1038/msb4100050 (2006)). For minimum concentration for inhibition (MIC) determination and checkerboard analyses, Clinical & Laboratory Standards Institute (CLSI) protocol was used. […] DiSC3 loading of S. aureus cells was performed as previously described (Farha, M. A., Verschoor, C. P., Bowdish, D. & Brown, E. D. Collapsing the proton motive force to identify synergistic combinations against Staphylococcus aureus. Chemistry & biology 20, 1168-1178, doi:10.1016/j.chembiol.2013.07.006 (2013)). CCCP concentration of 20 μM was used. pH adjustments were made by addition of HCl or NaOH. […]

[3] = system: S. aureus (Strain Newman); test: MIC determination (CLSI protocol) in MHB; assay type: cell-based, Staphylococcus aureus
Experimental: as §1

Acinetobacter baumannii = test: MIC determination (CLSI protocol); assay type: cell-based
Experimental: as §1, with “The GFP promoter library (Keseler, I. M. et al. EcoCyc: fusing model organism databases with systems biology. Nucleic Acids Res 41, D605-612, doi:10.1093/nar/gks1027 (2013)) was grown for 18 hours at ambient temperature with the same inoculation strategy as with the Keio collection. The analysis pipeline of Zaslaver et al (Zaslaver, A. et al. A comprehensive library of fluorescent transcriptional reporters for Escherichia coli. Nat Methods 3, 623-628, doi:10.1038/nmeth895 (2006)) was used to generate maps of promoter activity, from which lists of promoters with increased or decreased activity were compiled.” left out

Klebsiella pneumoniae = test: MIC determination (CLSI protocol); assay type: cell-based
Experimental: as §1, with “The GFP promoter library (Keseler, I. M. et al. EcoCyc: fusing model organism databases with systems biology. Nucleic Acids Res 41, D605-612, doi:10.1093/nar/gks1027 (2013)) was grown for 18 hours at ambient temperature with the same inoculation strategy as with the Keio collection. The analysis pipeline of Zaslaver et al (Zaslaver, A. et al. A comprehensive library of fluorescent transcriptional reporters for Escherichia coli. Nat Methods 3, 623-628, doi:10.1038/nmeth895 (2006)) was used to generate maps of promoter activity, from which lists of promoters with increased or decreased activity were compiled.” left out

Pseudomonas aeruginosa = test: MIC determination (CLSI protocol); assay type: cell-based
Experimental: as §1, with “The GFP promoter library (Keseler, I. M. et al. EcoCyc: fusing model organism databases with systems biology. Nucleic Acids Res 41, D605-612, doi:10.1093/nar/gks1027 (2013)) was grown for 18 hours at ambient temperature with the same inoculation strategy as with the Keio collection. The analysis pipeline of Zaslaver et al (Zaslaver, A. et al. A comprehensive library of fluorescent transcriptional reporters for Escherichia coli. Nat Methods 3, 623-628, doi:10.1038/nmeth895 (2006)) was used to generate maps of promoter activity, from which lists of promoters with increased or decreased activity were compiled.” left out

A. baumannii = test: Murine model of systemic A. baumannii infection; assay type: in vivo; settings: mice
Experimental: Mice were treated two-hours post-infection to allow complete organ occupancy by the injected cells.

[4] = system: methicillin-resistance Staphylococcus aureus (MRSA) USA-300; test: Superficial skin infection model, tape-stripped mice; assay type: in vivo; settings: topical 0.5% aqueous solution with or without bicarbonate (50 mM)
Experimental: In this model, an infection is established by disrupting the skin barrier through partial removal of the epidermal layer by stripping with adhesive tape and with subsequent application of the pathogen. Tape-stripped mice infected with 4×10^6 CFU/mL A. baumannii (FIG. 4A) or 4×10^6 CFU/mL methicillin-resistance Staphylococcus aureus (MRSA) USA-300 (FIG. 4B). […] This treatment regime was also conducted for the Vehicle (1.9% Boric Acid, pH 7) as a control (n=4). Tissue samples were collected at 25 hr post-infection (FIG. 4A) and 28 hr post-infection (FIG. 4B). […] (FIG. 5).

[5] = fold enhancement of MIC with 25 mM sodium bicarbonate, negative = suppression

O=C([O-])O.[Na+] [Sodium bicarbonate]
tolerability of nebulized bicarbonate ([1]; 225 mM nebulized): well tolerated
bacterial counts ([1]; 4 mL nebulized 225 mM sodium bicarbonate at 2, 12, 24 h, counts after 36 hours, inoculum 2.5×10^6 CFU/mL): 4×10^4-4×10^5 CFU/mL
MIC of sodium bicarbonate (E. coli (K-12 BW25113); Escherichia coli): 100 mM
effect on activity of pentamidine (checkerboard) (E. coli; E. coli, dose-dependent): greatly potentiated the activity of pentamidine
pH of MHB media ([2]; 3.12 mM sodium bicarbonate): 7.42
pH of MHB media ([2]; 25 mM sodium bicarbonate): 7.53
pH of MHB media ([2]; 50 mM sodium bicarbonate): 7.61
pH of MHB media ([2]; 100 mM sodium bicarbonate): 7.71
MIC of sodium bicarbonate (Enterococcus faecium): 50 to 100 mM
MIC of sodium bicarbonate ([3]; Staphylococcus aureus): 50 to 100 mM
MIC of sodium bicarbonate (Acinetobacter baumannii): 50 mM
MIC of sodium bicarbonate (Klebsiella pneumoniae): 100 mM
MIC of sodium bicarbonate (Pseudomonas aeruginosa): >100 mM

CN[C@H](CC(C)C)C(=O)N[C@H]1C(=O)N[C@@H](CC(N)=O)C(=O)N[C@H]2C(=O)N[C@H]3C(=O)N[C@H](C(=O)N[C@H](C(=O)O)c4cc(O)cc(O)c4-c4cc3ccc4O)[C@H](O)c3ccc(c(Cl)c3)Oc3cc2cc(c3O[C@@H]2O[C@H](CO)[C@@H](O)[C@H](O)[C@H]2O[C@H]2C[C@](C)(N)[C@H](O)[C@H](C)O2)Oc2ccc(cc2Cl)[C@H]1O [Vancomycin]
Fold, E. coli (E. coli (K-12 BW25113); [5]): 1 fold
MIC, S. aureus, MHB− ([3]; MHB without sodium bicarbonate): 1 µg/mL
Fold, S. aureus [3, 5]: −4 fold

N=C(N)c1ccc(OCCCCCOc2ccc(C(=N)N)cc2)cc1 [pentamidine]
potentiation of antibacterial activity in the presence of bicarbonate, average (Gram-negative organisms): 40 fold
MIC of pentamidine, tissue culture media formulated to mimic the natural environment (E. coli (K-12 BW25113)): 1.5 µg/mL
A. baumannii organ load (spleen), combination (A. baumannii; combination of pentamidine 10 mg/kg and novobiocin IP): total clearance
decrease of A. baumannii organ load (spleen) (A. baumannii; pentamidine alone IP): seven
effect of addition of bicarbonate on efficacy of pentamidine in clearing MRSA infection [4]: increased the antibacterial efficacy
potentiation of antibacterial activity in the presence of bicarbonate, average (Gram-positive organisms): 50 fold

O=P([O-])([O-])[O-].[Na+].[Na+].[Na+] [trisodium phosphate]
effect on activity of dirithromycin (checkerboard) (E. coli; pH not adjusted (pH ~10)): potentiated the activity of dirithromycin
effect on activity of dirithromycin (checkerboard) (E. coli; pH of the medium adjusted to 7.2): loss of synergy
increase of the pH of the media ([2]; trisodium phosphate added): 3 units

Gentamicin
Fold, E. coli (E. coli (K-12 BW25113)): 8 fold
MIC, E. coli, MHB+ (E. coli (K-12 BW25113)): 0.25
effect of CCCP pre-treatment on potentiation by sodium bicarbonate (E. coli (K-12 BW25113)): abolishes the potentiation
MIC, E. coli, MHB− (E. coli (K-12 BW25113)): 2
Fold, S. aureus [3]: 2 fold

Lysozyme
effect of physiological sodium bicarbonate on inhibitory activity (E. coli (K-12 BW25113); E. coli, 25 mM sodium bicarbonate): enhanced the inhibitory activity
MIC in MHB ([3]; S. aureus (strain Newman), MHB): >256 ** μg/mL
MIC in MHB + 25 mM bicarbonate ([3]; S. aureus (strain Newman), MHB + 25 mM sodium bicarbonate): >256 ** μg/mL

Neomycin
Fold, E. coli (E. coli (K-12 BW25113)): 4 fold
MIC, E. coli, MHB+ (E. coli (K-12 BW25113)): 0.25
MIC, E. coli, MHB− (E. coli (K-12 BW25113)): 1
Fold, S. aureus [3]: 4 fold

Polymyxin B
Fold, E. coli (E. coli (K-12 BW25113)): −2 fold
MIC, E. coli, MHB+ (E. coli (K-12 BW25113)): 0.5
MIC, E. coli, MHB− (E. coli (K-12 BW25113)): 0.25
Fold, S. aureus [3]: 8 fold
